MIC data for one compound are collected here from patent US9663478B2, “Benzotriazine oxides as drugs targeting Mycobacterium tuberculosis” (priority 2011, dated 2017).

≈ marks a conversion by molar mass, not a printed value.

Holding throughout (test): microbe, parasite or virus in culture
Holding throughout (format): cell-based, Mycobacterium tuberculosis

The test system of experiment [1] is Mtb strain resistant to Streptomycin ATCC 35820. The following applies: Mycobacterium tuberculosis, ATCC35820, read-out: Activity against Mtb strain resistant to Streptomycin ATCC 35820.
Experiment [2] has as its system Mtb strain resistant to P-aminosalicyclic acid ATCC 35821. Particulars: Mycobacterium tuberculosis, ATCC35821, read-out: Activity against Mtb strain resistant to P-aminosalicyclic acid ATCC 35821.
Experiment [3] deals with Mtb strain resistant to Isoniazid ATCC 35822. The following applies: Mycobacterium tuberculosis, ATCC35822, read-out: Activity against Mtb strain resistant to Isoniazid ATCC 35822.
The test system of experiment [4] is Mtb strain resistant to Kanamycin ATCC 35827. Particulars: Mycobacterium tuberculosis, ATCC35827, read-out: Activity against Mtb strain resistant to Kanamycin ATCC 35827.
Experiment [5] concerns Mtb strain resistant to Ethionamide ATCC 35830. The following applies: Mycobacterium tuberculosis, ATCC35830, read-out: Activity against Mtb strain resistant to Ethionamide ATCC 35830.
In experiment [6] the test system is Mtb strain resistant to Ethambutol ATCC 35837. The following applies: Mycobacterium tuberculosis, ATCC35837, read-out: Activity against Mtb strain resistant to Ethambutol ATCC 35837.

With `CS(=O)(=O)N1CCN(c2n[n+]([O-])c3cc4c(cc3[n+]2[O-])CCC4)CC1` [SRI-012568], the MIC stood at 2.5 µg/mL (≈ 6.84 µM) in experiment [1]; 2.5 µg/mL (≈ 6.84 µM) in experiment [2]; 2.5 µg/mL (≈ 6.84 µM) in experiment [3]; 2.5 µg/mL (≈ 6.84 µM) in experiment [4]; 0.62 µg/mL (≈ 1.7 µM) in experiment [5]; 2.5 µg/mL (≈ 6.84 µM) in experiment [6].
